Several values for one entry are separate records, joined by “and”; a condition that tells them apart may be missing. Equal entries are not always repeated. Where two headings read alike, the source gives them in different places.
Key:
[1] = test system: S. thypimurium TA98; assay: Ames test, plate incorporation method; type: cell-based, Salmonella Typhimurium; conditions: positive control, 100µg
Source text: (§4) Salmonella Typhimurium TA 98 and TA 100 were obtained from the Czech Collection of Microorganisms. As a positive mutagen, 3-(5-nitro-2-furyl) acrylic acid (NFAA) was used.

[2] = test system: S. thypimurium TA100; assay: Ames test, plate incorporation method; type: cell-based, Salmonella Typhimurium; conditions: positive control, 100µg
Source text: as §4

[3] = test system: Microsporum gypseum CCM F-8342; assay: Antifungal activity (filamentous fungi), macrodilution on solidified PDA; type: cell-based; conditions: M.gypseum; read-out: IC50 and MIC100 (class symbol)
Method: (§5) Cultures of bacteria (in Mueller-Hinton broth, MHB) and yeasts (in Sabouraud’s growth medium, SB) were incubated under shaking (250 rpm) at 37 °C. The growth of bacteria and yeasts was evaluated by measuring the absorbance of the growing cultures (A550) until the cultures reached the stationary growth phase. […] During culturing, the diameters of growing fungal colonies were measured at regular intervals [71, 72]. […] The final concentration of DMSO never exceeded 1.0 vol. % in the control or treated samples. […] The IC50 and MIC90 with respect to MIC80 values were evaluated from toxicity curves.

[4] = test system: methicillin-resistant Staphylococcus aureus L12; assay: Antibacterial activity, macrodilution method; type: cell-based; conditions: S. aureus L12 (MRSA)
Method: (§6) Cultures of bacteria (in Mueller-Hinton broth, MHB) and yeasts (in Sabouraud’s growth medium, SB) were incubated under shaking (250 rpm) at 37 °C. The growth of bacteria and yeasts was evaluated by measuring the absorbance of the growing cultures (A550) until the cultures reached the stationary growth phase. […] The final concentration of DMSO never exceeded 1.0 vol. % in the control or treated samples. […] The IC50 and MIC90 with respect to MIC80 values were evaluated from toxicity curves.

[5] = test system: A.flavus; assay: Antifungal activity (filamentous fungi); type: cell-based; conditions: read-out: IC50 and MIC100 (class symbol)
Method: as §5

[6] = test system: S. aureus biofilm; assay: Influence on S. aureus biofilm formation, crystal violet staining; type: cell-based; conditions: for A570 (biofilm, crystal violet): control A570 = 0.47; for I: biofilm intensity: control strong
Method: The biofilm was qualified by the crystal violet staining method. Briefly, overnight cultures of bacteria S.aureus (in MHB) and yeasts C.parapsislosis (in SB) were prepared. The fresh prepared growth media MHB and SB were inoculated with the overnight culture for a final concentration of 5 × 10^6 cells mL^−1. The microbial biofilm was formed in 96-well microplates for adherent cells. […] Prepared cultures were incubated for 2 h at 37 °C. […] The treatment with DMSO (solvent) alone served as a control. The inoculated microplates were incubated at 37 °C for the next 46 h. […] Microplates with mature biofilm were decanted and washed using 200 μL of saline solution. The plate was left for 15 min to dry completely at laboratory temperature. Then, 110 μL of 0.4% crystal violet dye was added to each well, and the plate was incubated for 15 min at laboratory temperature. After the decantation, the plate was washed 3 times with 200 μL of saline solution. Then, 200 μL of 96% ethanol was added. The microplate was left to incubate for 15 min at laboratory temperature. After the transfer of the well content to a clean microplate, the absorbance (570 nm) of released crystal violet (proportionate to biofilm cell density) was measured,, and the values were evaluated as weak biofilm formation A570 <0.1; 0.199>, medium biofilm formation A570 <0.2; 0.3>, strong biofilm formation A570 <0.301; 0.999>, or very strong biofilm formation A570 ≥ 1.00.

[7] = test system: Staphylococcus aureus CCM 3953; assay: Antibacterial activity, macrodilution method; type: cell-based; conditions: S. aureus
Method: as §6

[8] = test system: Jurkat cells; assay: Cell cycle analysis by flow cytometry; type: cell-based, human; conditions: treated with IC50
Method: (§1) Prior to each analysis, cells were washed in PBS, followed by resuspending in staining solution (0.5 mg/mL ribonuclease A, 0.2% final concentration Triton X-100, propidium iodide 0.025 mg/mL in 500 µL PBS) (all Sigma Aldrich), and incubated for 30 min at room temperature in the dark. For analysis of stained cells, a BD FACSCalibur flow cytometer (BD Bio-sciences) was used. A minimum of 1 × 10^4 events were analysed per analysis.

[9] = test system: MDA-MB-231 cells; assay: Cell cycle analysis by flow cytometry; type: cell-based, human; conditions: treated with IC50
Method: as §1

[10] = test system: HCT116 cells; assay: Cell cycle analysis by flow cytometry; type: cell-based, human; conditions: treated with IC50
Method: as §1

[11] = test system: BLM cells; assay: Cell cycle analysis by flow cytometry; type: cell-based, human; conditions: treated with IC50
Method: as §1

[12] = test system: HeLa; assay: MTS antiproliferative assay; type: cell-based, human; conditions: 72 h
Method: (§2) After 72 h of incubation, 10 µL of MTS was added to each well. […] IC50 values were calculated from MTS analyses.

[13] = test system: MCF-7; assay: MTS antiproliferative assay; type: cell-based, human; conditions: 72 h
Method: as §2

[14] = test system: Escherichia coli (E. coli) CCM 3988; assay: Antibacterial activity, macrodilution method; type: cell-based
Method: as §6

[15] = test system: BJ-5ta; assay: MTS assay on fibroblasts; type: cell-based; conditions: BJ-5ta human skin fibroblasts, 72 h
Method: as §2

[16] = test system: Candida albicans SC 5314; assay: Antifungal activity (yeast), macrodilution method; type: cell-based; conditions: C. albicans
Method: as §5

[17] = test system: Staphylococcus epidermidis CCM 7221; assay: Antibacterial activity, macrodilution method; type: cell-based; conditions: S.epidermidis
Method: as §6

[18] = test system: Alternaria alternata CCM F-128; assay: Antifungal activity (filamentous fungi), macrodilution on solidified PDA; type: cell-based; conditions: A. alternata; for IC50: read-out: IC50; for MIC100: suffix s = fungistatic
Method: as §5

[19] = test system: CT DNA; assay: UV-Vis absorption titration with CT DNA; type: binding, calf; conditions: 0.01 M Tris-HCl pH 7.4; complex 7.85 × 10^−5 M
Method: UV–vis spectra were measured in 0.01 M Tris-HCl buffer (pH 7.4) using a Varian Cary 100 Bio spectrophotometer in the range of 230–320 nm and recorded at room temperature (24 °C) using a quartz cuvette of 1 cm path length. The concentration of investigated Ag(I) complexes was 7.85 × 10^−5 M. During the titration, an aliquot of buffered CT DNA solution was added to each cuvette (sample and reference) to eliminate the absorbance of DNA itself. The DNA concentration per nucleotide was determined by absorption spectroscopy using the molar absorption coefficient (6600 M^−1cm^−1) at 260 nm.

[20] = test system: Candida parapsilosis ATCC 22019; assay: Antifungal activity (yeast), macrodilution method; type: cell-based; conditions: C. parapsilosis
Method: as §6

[21] = test system: CT DNA–HO system; assay: Fluorescence competitive binding with Hoechst 33258; set-up: species or system calf; conditions: displacement of Hoechst 33258 from CT DNA; 462 nm; 10 mM Tris-HCl pH 7.4
Method: The fluorescence competitive binding studies of silver(I) complexes with Hoechst 33 258 (HO) were performed on a Varian Cary Eclipse spectrophotometer. The emission spectra of DNA–HO were measured in the range of 400–550 nm using an excitation wavelength of 343 nm with a slit width of 5 nm for the excitation and 5 nm for the emission beam. […] Ksv quenching constant was determined according to the classical Stern-Volmer Equation (1) in [63, 75]:F0/F = 1 + KSV [Q](1) where F0 and F are the fluorescence intensities in the absence and the presence of the quencher at 462 nm, KSV is the Stern-Volmer quenching constant and [Q] is the concentration of the quencher.

[22] = test system: Jurkat; assay: MTS antiproliferative assay; type: cell-based, human; conditions: 72 h
Method: (§3) Cells were maintained in standard conditions with an atmosphere containing 5% CO2 at 37 °C.
as §2

[23] = test system: MDA-MB-231; assay: MTS antiproliferative assay; type: cell-based, human; conditions: 72 h
Method: as §3, §2

[24] = test system: BLM; assay: MTS antiproliferative assay; type: cell-based, human; conditions: BLM; MTS, 72 h
Method: as §3, §2

[25] = test system: HCT116; assay: MTS antiproliferative assay; type: cell-based, human; conditions: 72 h
Method: as §3, §2

[26] = test system: Rhizopus oryzae CCM F-8284; assay: Antifungal activity (filamentous fungi), macrodilution on solidified PDA; type: cell-based; conditions: for IC50: read-out: IC50; for MIC100: suffix s = fungistatic
Method: as §5

[27] = test system: MCF-7 cells; conditions: cited from earlier work
[28] = test system: MDA-MB-231; set-up: method as in PMID 33461021; conditions: cited from earlier work
[29] = test system: MCF-7; set-up: method as in PMID 33461021; conditions: cited from earlier work

For `O=C(O)C=Cc1ccc([N+](=O)[O-])o1` [NFAA, 3-(5-nitro-2-furyl) acrylic acid], the “Revertants CFU No. ± SD” value [1] was 28 ± 2 CFU and the “Revertants CFU No. ± SD” value [2] was 1352± 124 CFU.
[Ag2(HGlyAsp)(NO3)]n [AgGlyAsp] gave an IC50 [3] greater than 100 µM, an IC50 [4] of 31 µM and an MIC90 [4] of 49 µM. The IC50 [5] was greater than 100 µM, the “A570 (biofilm, crystal violet)” value ([6]; complex concentration 5 µM) was 0.36 and the “I: biofilm intensity” value ([6]; complex concentration 5 µM) was “strong (strong biofilm formation A570 <0.301; 0.999>)”. For the same compound, the “A570 (biofilm, crystal violet)” value ([6]; complex concentration 10 µM) was 0.35, the “I: biofilm intensity” value ([6]; complex concentration 10 µM) was “strong (strong biofilm formation A570 <0.301; 0.999>)” and the “A570 (biofilm, crystal violet)” value ([6]; complex concentration 50 µM) was 0.24. For the same compound, the “A570 (biofilm, crystal violet)” value ([6]; complex concentration 100 µM) was 0.25, the “I: biofilm intensity” value ([6]; complex concentration 100 µM) was “medium (medium biofilm formation A570 <0.2; 0.3>)” and the IC50 [7] was 51 µM. The MIC90 [7] was 96 µM, the “cells in G2/M” value ([8]; 24 h) was 15.5 ± 2.7% and the “cells in S” value ([8]; 24 h) was 14.0 ± 0.6%. For the same compound, the “cells in G2/M” value ([8]; 48 h) was 6.3 ± 0.3%, the “cells in S” value ([8]; 48 h) was 12.4 ± 1.1% and the “cells in G2/M” value ([9]; 24 h) was 30.6%. The “cells in G2/M” value ([9]; 48 h) was 25.8 ± 0.5%, the “cells in S” value ([9]; 48 h) was 10.6 ± 1.9% and the “cells in G2/M” value ([9]; 72 h) was 9.6 ± 1.2%. The “cells in S” value ([9]; 72 h) was 7.1 ± 2.4%, the “cells in G2/M” value ([10]; 24 h) was 16.8 ± 2.4% and the “cells in S” value ([10]; 24 h) was 16.3 ± 2.3%. For the same compound, the “cells in G2/M” value ([10]; 48 h) was 11.7 ± 3.4%, the “cells in S” value ([10]; 48 h) was 10.3 ± 1.3% and the “cells in G2/M” value ([11]; 24 h) was 14.8 ± 0.2%. The “cells in S” value ([11]; 24 h) was 13.8 ± 3.0%, the “cells in Sub-G0” value ([11]; 24 h) was 51.7% and the “cells in G2/M” value ([11]; 48 h) was 10.9 ± 2.8%. The “cells in S” value ([11]; 48 h) was 10.8 ± 2.5%, the “cells in Sub-G0” value ([11]; 48 h) was 56.1% and the “cells in Sub-G0” value ([11]; 72 h) was 59.3%. The IC50 [12] was 33.3 µM, the IC50 [13] was 33.8 µM and the IC50 [14] was 17 µM. For the same compound, the MIC90 [14] was 23 µM, the IC50 [15] was 57.6 µM and the IC50 [16] was 73 µM. For the same compound, the MIC80 [16] was 100 µM, the IC50 [17] was 25 µM and the MIC90 [17] was 50 µM. The IC50 [18] was 35 µM, the MIC100 [18] was greater than 100 µM and the Hypochromism [19] was 30% and 30.8%. The “Δλmax (red shift on addition of CT DNA)” value [19] was 13 nm, the IC50 [20] was 50 µM and the MIC80 [20] was 100 µM. The “KSV (Stern-Volmer quenching constant)” value [21] was 8.33 ± 0.07 × 10^4 M^−1, the IC50 [22] was 36.8 µM and the IC50 [23] was 33.6 µM. For the same compound, the IC50 [24] was 35.6 µM, the IC50 [25] was 35.5 µM and the IC50 [26] was 73 µM. The MIC100 [26] was 100 µM.
In the case of [Ag3(Gly)2NO3]n, the “cells in sub-G0 population” value ([27]; MFC-7 cancer cells, Control 9.8%, ref Banti et al.) is listed as 42.7%, the “cells in S phase” value [27] is listed as 24.1% and the IC50 [28] is listed as 2.7 ± 0.2 µM. The IC50 [29] was 2.6 ± 0.1 µM.
Work on [Ag(GlyGly)]n(NO3)n [AgGlyGly] yielded an IC50 [3] greater than 100 µM, an IC50 [4] of 15 µM and an MIC90 [4] of 38 µM. For the same compound, the IC50 [5] was greater than 100 µM, the “A570 (biofilm, crystal violet)” value ([6]; complex concentration 5 µM) was 0.72 and the “I: biofilm intensity” value ([6]; complex concentration 5 µM) was “strong (strong biofilm formation A570 <0.301; 0.999>)”. For the same compound, the “A570 (biofilm, crystal violet)” value ([6]; complex concentration 10 µM) was 0.39, the “I: biofilm intensity” value ([6]; complex concentration 10 µM) was “strong (strong biofilm formation A570 <0.301; 0.999>)” and the “A570 (biofilm, crystal violet)” value ([6]; complex concentration 25 µM) was 0.26. For the same compound, the “A570 (biofilm, crystal violet)” value ([6]; complex concentration 50 µM) was 0.22, the “A570 (biofilm, crystal violet)” value ([6]; complex concentration 100 µM) was 0.28 and the “I: biofilm intensity” value ([6]; complex concentration 100 µM) was “medium (medium biofilm formation A570 <0.2; 0.3>)”. For the same compound, the IC50 [7] was 12 µM, the MIC90 [7] was 22 µM and the “cells in G2/M” value ([8]; 72 h) was 8.9 ± 0.1%. The “cells in S” value ([8]; 72 h) was 11.1 ± 0.8%, the “cells in G2/M” value ([9]; 72 h) was 14.9 ± 0.1% and the “cells in S” value ([9]; 72 h) was 14.4 ± 0.1%. For the same compound, the “cells in G2/M” value ([10]; 72 h) was 7.1 ± 2.3%, the “cells in S” value ([10]; 72 h) was 9.8 ± 0.1% and the “cells in G2/M” value ([11]; 48 h) was 32.7 ± 2.4%. The “cells in S” value ([11]; 48 h) was 15.3 ± 1.5%, the IC50 [12] was 38.3 µM and the IC50 [13] was 9 µM. The IC50 [14] was 6 µM, the MIC90 [14] was 10 µM and the IC50 [15] was 47.1 µM. For the same compound, the IC50 [16] was 70 µM, the MIC80 [16] was 100 µM and the IC50 [17] was 10 µM. For the same compound, the MIC90 [17] was 20 µM, the IC50 [18] was 71 µM and the MIC100 [18] was greater than 100 µM. For the same compound, the Hypochromism [19] was 20.1%, the “Δλmax (red shift on addition of CT DNA)” value [19] was 22 nm and the IC50 [20] was 30 µM. The MIC80 [20] was 70 µM, the “KSV (Stern-Volmer quenching constant)” value [21] was 4.51 ± 0.05 × 10^4 M^−1 and the IC50 [22] was 14.8 µM. It also gave an IC50 [23] of 13 µM, an IC50 [24] of 21.2 µM and an IC50 [25] of 34.5 µM. For the same compound, the IC50 [26] was 30 µM and the MIC100 [26] was 50 µM.

Source: PMC8587849, “Antimicrobial and Anticancer Application of Silver(I) Dipeptide Complexes” (Molecules, 2021)
